Measured values reported in patent US11696903B2, “Compounds and methods for scavenging dicarbonyl electrophiles” (VANDERBILT UNIVERSITY, priority 2019, dated 2023).

Key:
[1] = Tolerability of EtHOBA in control mice (body weight, organs); assay type: in vivo
Protocol: (§1) FIGS. 3A and 3B show data from C57BL/6 mice were treated or not with various concentrations of EtHOBA. (A) Body weight was assessed every day. (B) After 6 days, mice were euthanized and EtHOBA was measured in the colon. n=5 mice/group.
(§2) The present inventors analyzed the effect of various concentrations of EtHOBA and its bioavailability in control mice. […] After 6 days of treatment, EtHOBA concentrations in the colon were analyzed using liquid chromatography electrospray ionization tandem mass spectrometry (LC/EST/MS/MS).

[2] = EtHOBA concentration in the colon by LC/ESI/MS/MS; assay type: in vivo; conditions: 1.5 and 3.7 mg/ml, after 6 days of treatment
Protocol: as §1, §2

LG-protein adducts = assay: IHC for LG-protein adducts in colons of AOM-DSS mice; assay type: in vivo, C57BL/6 mice; conditions: 1.5 mg/ml EtHOBA
Description: The present inventors performed immunohistochemistry (IHC) staining using the single chain antibody (Ab) D11, which specifically binds to L G-protein adducts, and a tissue microarray (TMA) from VUMC that contains colon tissues from patients with ulcerative colitis (UC), and associated precancerous and cancerous lesions. Histopathologic diagnoses were established from clinical case material from surgical resections and confirmed by H&E staining of the TMA. High levels of L G-protein adducts were present in active colitis, dysplasia, and carcinoma compared to normal patients (FIG. 2). On the TMA, 7/9 (78%) high grade dysplasia (HGD) cores and 21/23 (91%) CAC cores were scored positive for L G adducts.
Animals receive an i.p. injection of the carcinogen AOM (12.5 mg/kg) followed by 3 cycles of 4% DSS, each for 4 days, over a total of 56-77 days. To directly determine the role of electrophiles in colon carcinogenesis, the present inventors tested the effect of EtHOBA in C57BL/6 mice in the AOM-DSS model. Mice were given 1.5 mg/ml EtHOBA one day after AOM and continued throughout the experiments, except during the DSS cycles, to avoid mixing. The present inventors assessed electrophiles in colons of mice treated with AOM-DSS, by IHC for electrophile protein adducts. […]

[3] = tested on: LG-histone adducts in RAW264.7 cells; assay: LG-lysyl adduct formation on histones in RAW264.7 cells (LC/ESI/MS/MS); assay type: cell-based, mouse
Protocol: FIGS. 11A, 11B, 11C, 11D, 11E, and 11F are a series of graphs showing that LG-lysine adducts of histones are found in cells and tissue, dependent on COX-2 activity. RAW264.7 mouse macrophage (A) and A549 human lung carcinoma (C) cells were stimulated to express COX-2, then given 20 μM arachidonic acid (AA) or vehicle. A subgroup of cells was preincubated 45 min with 50 μM indomethacin. As a measure of COX activity, PGE2 was determined by GC/MS from cell media prior to lysis (B and D). Nuclei were isolated, and histones were extracted and digested to individual amino acids prior to LC/EST/MS/MS analysis. *, p<0.05; ***, p<0.001 by ANOVA followed by Tukey's post-test (n≥5). (E). Histones were extracted from nuclei of rat liver, and analyzed as above for LG-lactam adduct. COX-2 protein was analyzed by Western blotting and plotted against lactam adduct levels. Each point corresponds to 1 liver, and shown is the line of regression (r^2=0.7237). Pearson r=0.8507; two-tailed p=0.0152. (F) LC-MS chromatograph of histones isolated from a rat liver with relatively high COX-2 expression (COX-2 band intensity of 117 arbitrary units).
(A). Scavengers were screened in RAW264.7 cells for the ability to decrease LG adduct formation on histones. Scavengers used were glucosamine (GA), 3-methoxysalicylamine (3-MoSA), pentylpyridoxamine (PPM), and 5-ethylsalicylamine (EtSA). Cells were stimulated to express COX-2, pretreated 45 min. with 500 μM scavenger or vehicle (H2O), and given 20 μM AA for 1 h before lysing and extracting histones. Histone proteins were analyzed by LC/ESI/MS/MS for LG-lysyl lactam adduct, n=2. (B) Stimulated A549 cells were pretreated with 30, 300, or 1000 μM EtSA prior to 1 h with 20 μM AA, and histones analyzed for LG-lysyl adduct. *, p<0.05 by one-way ANOVA followed by Dunnett's multiple comparisons post-test (n=3-5). (C). A549 cells were stimulated, pretreated 45 min. with 1000 μM EtSA or H2O vehicle, and given 20 μM AA for 1 h. Media was analyzed by GC/MS for PGE2 (n=3). There was no effect on PGE2 production at lower doses of EtSA (data not shown).
To stimulate COX-2 expression, A549 or RAW264.7 cells were treated overnight with 5 ng/mL IL-1B (A549) or 10 μg/mL LPS and 10 U/mL IFNγ (RAW264.7) in serum-free medium. When indicated, cells were pretreated with indomethacin, aldehyde scavengers (glucosamine, 3-MoSA, PPM or EtSA), or vehicle (ethanol for indomethacin, H2O for scavengers) for 45 min, and then given 20 μM arachidonic acid (AA) or DMSO vehicle for 1 h before lysing.
Cultured cells were lysed in hypotonic buffer (10 mM Tris/10 mM NaCl/3 mM MgCl2) containing 1 mM pyridoxamine and 100 μM indomethacin to prevent the artifactual formation of LGE2 during the lytic process. […] Protein concentration was determined using the method of Bradford. […]

SMILES: CCc1ccc(O)c(CN)c1 [EtHOBA, 5-ethyl-2-hydroxybenzylamine]
- Body weight ([1]; 3.7 mg/ml EtHOBA, control mice, 6 days): lost weight on day 1, but did not lose additional weight and did not die
- Body weight ([1]; 0.37-1.5 mg/ml EtHOBA, compared to untreated mice): no loss of body weight
- colon weight/length ([1]; 1.5 or 3.7 mg/ml EtHOBA): no change in colon weight/length
- macroscopic evidence of organ damage ([1]; 1.5 or 3.7 mg/ml EtHOBA): no macroscopic evidence of organ damage
- EtHOBA concentrations in the colon [2]: readily detected
- LG-protein adducts (IHC staining) (LG-protein adducts): marked attenuation
- potency in protecting histones from modification by levuglandins ([3]; in comparison with salicylamine, pyridoxamine and their other analogues): most potent
- LG adduct formation on histones ([3]; stimulated RAW264.7, 500 μM scavenger 45 min, 20 μM AA 1 h): most effectively blocked
